Assay results: patent US20100196516A1, “TREATMENT OF INFECTIONS BY CARBON MONOXIDE” (priority 2007, published 2010)
Entries after “also recorded” stand apart in the source; their conditions may differ.

Key:
bacteria = assay: Bactericidal effect / bacterial growth, bacterium not given; assay type: cell-based; conditions: for bactericidal properties or altered growth kinetics of decomposition products: same concentration as compound of Formula V (50 μM), data not shown
Protocol: (§1) CO gas and CORM treatment: Overnight cultures of E. coli or S. aureus grown in LB or tryptic soy broth, respectively, were used to inoculate fresh MS medium (E. coli) or LB medium (S. aureus), and the cultures on fresh medium were incubated at 37° C. under the required aeration conditions to an optical density at […] of 0.3. At this point, cells were exposed to a flux of CO gas for 15 min or to CORMs. Untreated cells were bubbled with nitrogen gas or treated with dimethyl sulfoxide, water, or methanol, depending on the solvent used to dissolve the CORM.
(§2) Viability assays: The number of viable cells was evaluated by measuring the CFU per milliliter upon plating serial dilutions of the various cultures onto agar plates. The percent survival was calculated as the number of colonies originated by treated cultures divided by the number of colonies formed upon the plating of untreated cultures. Sensitivity tests were conducted by plating 5 μl serial dilutions of cultures grown for 4 h and treated with CORMs, with or without the CO scavenger hemoglobin (Hb [bovine form used at 20 μM; Sigma]), onto agar. The experiments were performed with a minimum of three independent cultures, and the results are presented in the figures as averaged values with error bars representing one standard deviation.

E. coli K-12 ATCC 23716 = assay type: cell-based, Escherichia coli; conditions: for effect on viability / growth of E. coli: CO gas flux 15 min, CORM-2 250 μM, CORM-3 400 μM, Formula IV 500 μM aerobic or 200 μM anaerobic, Formula V 50 μM, MS medium; for bactericidal effect on E. coli in the presence of Hb: with CO scavenger Hb, bovine, 20 μM
Protocol: (§3) Bacterial strains and growth conditions: E. coli K-12 ATCC 23716 and S. aureus NCTC8325 were grown in minimal salts (MS) medium (1.3% [wt/vol] Na2HPO4, 0.3% [wt/vol] KH2PO4, 0.05% [wt/vol] NaCl, and 0.1% [wt/vol] NH4Cl supplemented with 20 mM glucose, 2 mM MgSO4, 100 μM CaCl2, and 0.25% [wt/vol] Casamino Acids) and in Luria-Bertani (LB) medium (1% [wt/vol] tryptone, 0.5% [wt/vol] yeast extract, and 1% [wt/vol] NaCl), respectively, under different oxygen supply conditions. Aerobic experiments were undertaken with flasks filled to one-fifth of their volume, microaerobic tests were conducted with closed flasks filled to one-half of their volume, and anaerobic conditions were produced in rubber-sealed flasks that, once filled with medium and closed, were extensively fluxed with nitrogen gas.
as §1
as §2, with “agar.” for “agar. The experiments were performed with a minimum of three independent cultures, and the results are presented in the figures as averaged values with error bars representing one standard deviation.”

S. aureus NCTC8325 = assay type: cell-based, Staphylococcus aureus; conditions: for effect on viability / growth of S. aureus: CO gas flux 15 min, CORM-2 250 μM, CORM-3 500 or 400 nM (so in the source), Formula IV 600 μM, Formula V 50 μM, LB medium; for bactericidal effect on S. aureus in the presence of Hb: with CO scavenger Hb, bovine, 20 μM
Protocol: as §3, §1
as §2, with “agar.” for “agar. The experiments were performed with a minimum of three independent cultures, and the results are presented in the figures as averaged values with error bars representing one standard deviation.”

S. aureus = assay: MIC and MBC by tube dilution test; assay type: cell-based, Staphylococcus aureus; conditions: minimal medium, at least 18 h at 37° C.
Protocol: (§4) The investigation of MICs and minimal bactericidal concentrations (MBCs) was carried out by the tube dilution test. Briefly, 2.5 ml of minimal medium was inoculated with an overnight culture of E. coli or S. aureus to give an optical density at 600 nm of 0.005 to 0.01. Different concentrations of CORM-2, between 150 μM and 2 mM, were added to the diluted suspensions in the wells of 24-well plates, and the plates were incubated for at least 18 h at 37° C. and 90 rpm. The concentration of CORM-2 in the first well in the series with no sign of visible growth was reported as the MIC. […] After incubation at 37° C. for 24 h, the lowest concentration of CORM-2 in a culture with no growth was assumed to be the MBC.

hemoglobin (Hb) = target: T1, hemoglobin (Hb) (Bos taurus, UniProt P01966+P02070); assay: Transfer of CO from CORMs to Hb (carbonylation, shift of Soret band); assay type: biochemical, bovine
T1 construct: purchased Sigma

[1] = CO release kinetics: CO released into medium by CORMs (gas chromatography); assay type: physicochemical; conditions: media utilized (MS, LB), time scale of the experiment
Protocol: CO release kinetics: CORMs were mixed with MS or LB medium in sealed vessels, and the vessels were incubated at room temperature under constant stirring and protected from light. Gas samples were collected after 30 min and 4 h and analyzed using a gas chromatograph (Thermo Finnigan Trace) equipped with a CTRI column (Alltech) and a thermal conductivity detector. The CO released was quantified using a calibration curve recorded prior to the reaction course.

H. pylori 26695 = assay: Diffusion disk assay, inhibition halos; assay type: cell-based, Helicobacter pylori; conditions: paper disks, 15 μl; 200 mM CORM-2; 150 mM Formula II and Formula III; 24-36 hours
E. coli = assay: MIC and MBC by tube dilution test; assay type: cell-based, Escherichia coli; conditions: minimal medium, at least 18 h at 37° C.
Protocol: as §4

T1 sequence (P01966 2-142): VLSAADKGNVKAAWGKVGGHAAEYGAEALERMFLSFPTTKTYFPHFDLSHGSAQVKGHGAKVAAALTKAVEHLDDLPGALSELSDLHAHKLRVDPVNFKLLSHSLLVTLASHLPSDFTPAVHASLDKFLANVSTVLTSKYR
T1 sequence (P02070 whole entry): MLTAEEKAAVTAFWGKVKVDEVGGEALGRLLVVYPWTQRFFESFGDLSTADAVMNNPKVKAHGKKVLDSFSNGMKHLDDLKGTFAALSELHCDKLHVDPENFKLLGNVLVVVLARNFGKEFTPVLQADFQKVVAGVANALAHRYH

[C-]#[O+] [CO gas, Carbon monoxide]
concentration of CO needed to become effective as a bactericide (bacteria; CO administered as gas): ca. 1 mM | effect on viability / growth of E. coli (E. coli K-12 ATCC 23716): significant growth impairment | effect on viability / growth of S. aureus (S. aureus NCTC8325): significant growth impairment

[C-]#[O+].[C-]#[O+].[C-]#[O+].[C-]#[O+].[C-]#[O+].[C-]#[O+].[Cl][Ru][Cl].[Cl][Ru][Cl] [CORM-2, tricarbonyldichlororuthenium(II) dimer, reference compound]
MBC/MIC ratio (S. aureus): 1.0 | time for carbonylation of Hb (in words) (hemoglobin (Hb)): within the mixing time | release of CO gas upon dissolution in the medium (in words) [1]: neither CORM-2 nor CORM-3 releases CO gas | bactericidal effect on H. pylori (inhibition halos) (H. pylori 26695): bactericidal effect | effect on viability / growth of E. coli (E. coli K-12 ATCC 23716): significantly diminished | effect on viability / growth of S. aureus (S. aureus NCTC8325): significantly diminished | MBC/MIC ratio (E. coli): 1.5

NCC(=O)O.[CH+]=O.[CH+]=O.[CH+]=O.[Cl][Ru] [CORM-3, tricarbonylchloro(glycinato)ruthenium(II), reference compound]
time for carbonylation of Hb (in words) (hemoglobin (Hb)): within the mixing time | release of CO gas upon dissolution in the medium (in words) [1]: neither CORM-2 nor CORM-3 releases CO gas | effect on viability / growth of E. coli (E. coli K-12 ATCC 23716): strongly decreased the viability | effect on viability / growth of S. aureus (S. aureus NCTC8325): strongly decreased the viability

O=[C][Mo]12([C]=O)([C]=O)[O]C(=O)CN(CCN(CC(=O)O)CC(=O)[O]1)CCN(CC(=O)O)CC(=O)[O]2 [compound of Formula III]
bactericidal effect on H. pylori (inhibition halos) (H. pylori 26695): bactericidal effect

O=[C]=[Mn]([Br])(=[C]=O)(=[C]=O)(=[C]=O)=[C]=O [compound of Formula IV, bromo(pentacarbonyl)manganese]
release of CO gas upon dissolution in the medium (in words) [1]: rather small amounts | effect on viability / growth of E. coli (E. coli K-12 ATCC 23716): strongly reducing the viability; also recorded: more effective in reducing the viability of E. coli cells grown anaerobically | bactericidal effect on E. coli in the presence of Hb (E. coli K-12 ATCC 23716): completely eliminated the harmful action | effect on viability / growth of S. aureus (S. aureus NCTC8325): strongly reducing the viability | bactericidal effect on S. aureus in the presence of Hb (S. aureus NCTC8325): completely eliminated the harmful action

CC[N+](CC)(CC)CC.O=[C]=[Mo-]([Br])(=[C]=O)(=[C]=O)(=[C]=O)=[C]=O [compound of Formula V, tetraethylammonium molybdenum pentacarbonyl bromide]
release of CO gas upon dissolution in the medium (in words) [1]: rather small amounts | effect on viability / growth of E. coli (E. coli K-12 ATCC 23716): strongly reducing the viability | bactericidal effect on E. coli in the presence of Hb (E. coli K-12 ATCC 23716): completely eliminated the harmful action | effect on viability / growth of S. aureus (S. aureus NCTC8325): strongly reducing the viability | bactericidal effect on S. aureus in the presence of Hb (S. aureus NCTC8325): completely eliminated the harmful action

[Na+].[Na+].[O]=[Mo](=[O])([O-])[O-] [sodium molybdate]
bactericidal properties or altered growth kinetics of decomposition products (bacteria): None of these compounds had bactericidal properties or altered growth kinetics

CC[N+](CC)(CC)CC.[Br-] [tetraethyl ammonium bromide]
bactericidal properties or altered growth kinetics of decomposition products (bacteria): None of these compounds had bactericidal properties or altered growth kinetics
